Values quoted from earlier work as cited in patent publication US20230079480A1, “STABLE NON-AQUEOUS COMPOSITIONS OF FUNCTIONAL INGREDIENTS AND METHODS OF MAKING THE SAME” (Nulixir Inc., priority 2021, published 2023).
Where two headings read alike, the source gives them in different places.

What was measured:
[1] = in vivo
[2] = not given; remark: listed apart in the source
[3] = water and n-octanol reference phases, pH=7 unless stated otherwise

Molecule	log P [3]	further results
COc1cc2c(c(OC)c1OC)-c1c(cc3c(c1OC)OCO3)CC(C)C(C)C2 (single isomer, unassigned; (-)) [(−)-schisandrin B]	~4	–
COc1cc(/C=C/c2ccccc2)oc(=O)c1 [5,6-dehydrokawain]	~2.9	–
COC1=CC(=O)OC(/C=C/c2ccc(OC)cc2)C1 (stereo not drawn) [5,6-dihydroyangonin]	~2.5	–
CC1=C(CO)C(=O)O[C@@H]([C@@H](C)[C@H]2CC[C@H]3[C@@H]4C[C@H](Cl)[C@]5(O)[C@@H](O)C=CC(=O)[C@]5(C)[C@H]4CC[C@]23C)C1 [6a-chloro-5b-hydroxywithaferin A]	~3.2	–
COC1=CC(=O)O[C@@H](CCc2ccc3c(c2)OCO3)C1 [7,8-dihydromethysticin]	~2.2	–
COc1ccc(CCc2cc(OC)cc(=O)o2)cc1 [7,8-dihydroyangonin]	~2.9	–
COc1cc(/C=C\c2ccc(OC)c(O)c2)oc(=O)c1 [11-hydroxyyangonin]	~2.2	–
COc1cc2c(c(OC)c1OC)-c1c(cc(OC)c(OC)c1OC)C[C@](C)(O)[C@@H](C)C2 [(+)-schisandrin]	~5	–
COc1cc2c(c(OC)c1OC)-c1c(cc(OC)c(OC)c1OC)C[C@H](C)[C@H](C)C2 [(−)-schisandrin A]	~3.6	–
COc1c2c(cc3c1-c1c(cc4c(c1OC)OCO4)C[C@H](C)[C@H](C)C3)OCO2 [(−)-schisandrin C]	~3.5	–
O=CC=Cc1ccccc1 [Cinnamaldehyde]	–	inhibitory activity against fungi (many strains of fungi): strong inhibitory activity against many strains of fungi
CC(C)=C[C@@H]1CO[C@]23C[C@]4(CO2)[C@H](CC[C@@H]2[C@@]5(C)CC[C@H](O[C@@H]6OC[C@H](O)[C@H](O[C@@H]7O[C@H](CO)[C@@H](O)[C@H](O)[C@H]7O)[C@H]6O[C@@H]6O[C@@H](CO)[C@H](O)[C@H]6O)C(C)(C)[C@@H]5CC[C@]24C)[C@H]3[C@@]1(C)O [bacopasaponin C]	–	log P (pH 7): ~2
CC(C)=C[C@H]1C[C@](C)(O)[C@@H]2[C@H]3CC[C@@H]4[C@@]5(C)CC[C@H](O[C@@H]6OC[C@H](O)[C@H](O[C@@H]7O[C@H](CO)[C@@H](O)[C@H](O)[C@H]7O)[C@H]6O[C@@H]6O[C@@H](CO)[C@H](O)[C@H]6O)C(C)(C)[C@@H]5CC[C@@]4(C)[C@@]34CO[C@@]2(C4)O1 [bacopaside X]	–	log P (pH 7): ~2.2
CC(C)=C[C@H]1C[C@](C)(O)[C@H]2[C@H]3CC[C@@H]4[C@@]5(C)CC[C@H](O[C@@H]6O[C@H](CO)[C@@H](O)[C@H](O[C@@H]7O[C@H](CO)[C@@H](O)[C@H](O)[C@H]7O)[C@H]6O[C@@H]6O[C@@H](CO)[C@H](O)[C@H]6O)C(C)(C)[C@@H]5CC[C@@]4(C)[C@@]34CO[C@@]2(C4)O1 [bacoside A3]	–	log P (pH 7): ~2.1
COc1ccc2cc3[n+](cc2c1OC)CCc1cc2c(cc1-3)OCO2 [berberine]	–	bioavailability [1]: below 1%; solubility in ethanol as a function of water content [2]: decreases rapidly with water content
CC(C)=CCC[C@](C)(O[C@@H]1O[C@H](CO[C@@H]2O[C@H](CO)[C@@H](O)[C@H](O)[C@H]2O)[C@@H](O)[C@H](O)[C@H]1O)[C@H]1CC[C@]2(C)[C@@H]1[C@H](O)C[C@@H]1[C@@]3(C)CC[C@H](O[C@@H]4O[C@H](CO)[C@@H](O)[C@H](O)[C@H]4O[C@@H]4O[C@H](CO)[C@@H](O)[C@H](O)[C@H]4O)C(C)(C)[C@@H]3CC[C@]12C [ginsenoside rb1]	–	log P (pH 7): ~−1

Molecule	log P [3]	further results
CC(C)=CCC[C@](C)(O[C@@H]1O[C@H](CO)[C@@H](O)[C@H](O)[C@H]1O)[C@H]1CC[C@]2(C)[C@@H]1[C@H](O)C[C@@H]1[C@@]3(C)CC[C@H](O)C(C)(C)[C@@H]3[C@@H](O[C@@H]3O[C@H](CO)[C@@H](O)[C@H](O)[C@H]3O)C[C@]12C [ginsenoside rg1]	–	log P (pH 7): ~0.8
COc1ccc(C23C=CC(O)CC2N(C)CC3)cc1OC (stereo not drawn) [mesembrenol]	–	log P (pH 7): ~2.4
COc1ccc([C@@]23C=CC(=O)C[C@@H]2N(C)CC3)cc1OC [mesembrenone]	–	log P (pH 7): ~1.3
COc1ccc([C@@]23CCC(=O)C[C@@H]2N(C)CC3)cc1OC [mesembrine]	~1.5	–
COc1nc2c(c(=O)n1C)n(C)c(=O)n2C [methylliberine]	~−0.083	–
CC(=O)OC1C=CC(=O)N(C(=O)CCc2ccccc2)C1 (stereo not drawn) [pipermethystine]	~1.8	–
COc1cc([C@H]2Oc3cc(O)c4c(=O)c(O)c(-c5ccc(O)cc5)oc4c3O[C@@H]2CO)ccc1O [rhodiolin]	~2	–
COc1cc2c(c(OC)c1OC)-c1c(cc(OC)c(OC)c1OC)C[C@](C)(O)[C@@H](C)C2 [schisandrol A]	~3.4	–
N#C[C@@]1(O[C@@H]2O[C@H](CO)[C@@H](O)[C@H](O)[C@H]2O)C=C[C@@H](O)C1 [tetraphyllin B]	~−2.5	–
Cn1c(=O)c2c(n(C)c1=O)n(C)c(=O)n2C [theacrine]	~−1.06	–
(R)-kawain	~2.7	–
bacopaside B	~2.8	–
hericerin	~6.4	–
herinacine A	~2.5	–
schisandroside C	~1.6	–
tortuosomine	~3	–
